The values that follow come from US8598128B2, “Fructosylated puerarin, and preparation method and use thereof” (priority 2010, dated 2013).

For series [1] the following is noted: cited from earlier work; for water solubility compared with puerarin: literature.
The conditions of series [2]: literature; cited from earlier work.
Series [3] deals with myocardio ischemia mice. The experiment in a line: T wave amplitude variation in pituitrin acute myocardial ischemia model. Format: in vivo, Sprague-Dawley mice (SD mice). Particulars: 50 mg/kg. From the text:
(§1) Embodiment 6: […] Pituitrin injection was purchased from Nanjing Xinbai Pharmaceutical Co., Ltd., normal saline injection from Nanjing Xiaoying Pharmaceutical Co., Ltd., and DMSO, PG, and anhydrous ethanol were of chromatographic class. […] The data were presented with, and tested with t. P<0.05 indicates substantial difference, P<0.01 indicates very substantial difference; and P<0.001 indicates extremely substantial difference.

The test system of series [4] is human breast cancer cell strain MDA-MB-231. As to the kind of experiment: MDA-MB-231 cell toxicity test (MTT). To be noted: 48 h; for OD value: MTT 490 nm. Format: cell-based. The procedure:
MDA-MB-231 cells were cultured in an incubator at 37° C. with 5% CO2 saturated humidity in the RPMI-1640 complete culture medium containing inactivated fetal calf serum with volume fraction of 10%, 100 U penicillin and streptomycin. Take MDA-MB-231 cells in logarithmic phase (primary culture bottle) and discard the culture solution. […] Prepare the suspended solution of cells and adjust the cell concentration with appropriate amount of complete culture medium to 3×10^4/mL. Fed the cells into a tissue culture plate 96, with cell suspended liquid of 180 μL in each case, and put the culture plate into a cell incubator (37° C., 5% CO2) for conventional culture. When cells grew to 50%-70%, add drug liquid of different concentration. […] For DMSO solvent control group, add 20 μL of PBS containing […] and for the blank group, add 20 μL of PBS. For each drug concentration, 6 complex cases were provided. Put back the culture plate into the cell incubator, after 48 h, add 20 μL MTT (5 mg/mL) solution and continue to incubate it in the incubator for 4 h, then remove the supernatant and dry it with tissue, add 200 μL DMSO into each case and vibrate it in the rocker without light for 15 min, to allow the crystal to fully dissolve. Determine the light absorption at 490 nm with a fully automatic ELISA instrument, and calculate the average suppression rate, suppression rate (%)=(control group A490−test group A490)/control group A490), the experiment was repeated three times. Relevant analysis and Student t tests in Microsoft Excel 2003 were used, and data are presented in X±SD.

A short description of series [5]: physchem. Particulars: 25° C.
The nature of series [6]: in vivo. Particulars: in vivo, 50 mg/kg. On the procedure:
Embodiment 5: Metabokinetic Experiment of monofructosyl-β(2,6)-Puerarin in Blood
In HPLC analysis, DIONEX was used, with chromatographic column as Discovery HS C18 ([…], 5 μm), feeding specimen volume 20 μL, column temperature 30° C., the detector was UVD170U, with detection wavelength of 254 nm, flowing phase: A, water, B, chromatographic class methanol, A:B=80:20, at flow rate of 1 mL/min.
Sprague-Dawley mice (SD mice), with weight of 180-220 g, male and female in half, provided by Medical Experiment Center of Nantong University, with production permit No.: SCXK (Su) 20080010.
SD mice were randomly divided into 2 groups of 5 each, fasting for 12 hours before experiment. Puerarin and monofructosyl-β(2,6)-puerarin were respectively dissolved in 20% 1,2-PG normal saline, and injected into mouse caudal vein at a dosage of 50 mg/kg. After injection, at t=0 min, 4 min, 7 min, 17 min, 40 min, 60 min, 120 min and 180 min, 0.5 mL of blood was taken from orbit and put into centrifugal tubes treated with liquaemin, then it was immediately separated by centrifuging at 3000 rpm for 15 min, to separate out plasma for analysis.
Plasma of 100 μL was precisely taken and put into test tube, and 400 μL of methanol sedimented protein was added, they were mixed on vortex mixer for 5 min, then centrifuged at 10000 rpm for 10 min, and the supernatant was used for HPLC analysis.
The plasma concentration of the puerarin and monofructosyl-β(2,6)-puerarin specimens prepared as per 3.2 was obtained by calculation with external reference method. The data obtained were analyzed using pharmacokinetics statistic software.

Series [7] concerns myocardio ischemia mice. As to the kind of experiment: Heart rate in pituitrin acute myocardial ischemia model. The series is classed as in vivo, Sprague-Dawley mice (SD mice). Particulars: 50 mg/kg.
Excerpt: as §1

The subject of series [8] is human chronmyelogenors leukemia cell strain K562. The experiment in a line: K562 cell toxicity test (MTT). The series is classed as cell-based. Particulars: 48 h; for OD value: MTT 490 nm. On the procedure: K-562 cells were cultured in an incubator at 37° C. with 5% CO2 saturated humidity in the RPMI-1640 complete culture medium containing inactivated calf serum with volume fraction of 10%, 100 U penicillin and streptomycin. […] For each drug concentration, 6 complex cases were provided. Put back the culture plate into the cell incubator, after 48 h, add 20 μL MTT (5 mg/mL) solution and continue to incubate it in the incubator for 4 h, then each case was added with triple liquid 100 μL, put it overnight to allow the crystal to fully dissolve. Vibrate it with oscillator for 20 min and determine the light absorption at 490 nm with a fully automatic ELISA instrument, and calculate the average suppression rate, suppression rate (%)=(control group A490−test group A490)/control group A490), the experiment was repeated three times. Relevant analysis and Student t tests in Microsoft Excel 2003 were used, and data are presented in X±SD.

Series [9] is described as follows: Solubility determination at 25° C.
The subject of series [10] is aorta vascular smooth muscle. Particulars: compared with puerarin, literature; cited from earlier work.
[11] abbreviates: both, Sprague-Dawley, mouse, iv.

≈ marks a conversion by molar mass, not a printed value.

Regarding `O=c1c(-c2ccc(O)cc2)coc2c([C@@H]3O[C@H](CO)[C@@H](O)[C@H](O)[C@H]3O)c(O[C@@H]3O[C@H](CO)[C@@H](O)[C@H](O)[C@H]3O)ccc12` [7-O-glucoside puerarin], the “water solubility compared with puerarin” value in series [1] is recorded as 18 times. In addition, in series [2], the “mean retaining time (MRT) relative to puerarin” value is reported as 2.8 times and the “plasma half-life (t1/2) relative to puerarin” value is on record as 2 times.

For the compound `O=c1c(-c2ccc(O)cc2)coc2c(C3OC(CO)C(O)C(O)C3O)c(OC3OC(COC4OC(CO)C(O)C(O)C4O)C(O)C(O)C3O)ccc12` (stereo not drawn) [7-O-isomaltoside puerarin], the “water solubility compared with puerarin” value in [1] is reported as 100 times.

As to `O=c1c(-c2ccc(O)cc2)coc2c([C@@H]3O[C@H](CO)[C@@H](O)[C@H](O)[C@H]3O)c(O)ccc12` [Puerarin, 7,4′-dyhydroxy-8-β-D-glucosyl isoflavone], the solubility in water in series [1] (background statement) is 6240 µg/mL (≈ 15 mM). The “T wave amplitude variation” value was 0.082 ± 0.052 mv in series [3] (15 s after Pit); 0.114 ± 0.096 mv in [3] (30 s after Pit); 0.118 ± 0.086 mv in [3] (1 min after Pit); 0.132 ± 0.096 mv in series [3] (2 min after Pit); 0.118 ± 0.075 mv in series [3] (5 min after Pit); 0.074 ± 0.061 mv in [3] (10 min after Pit). Further, the Average suppression rate turned out to be 10.68% in [4] (0.5 μmol/L); 11.67% in series [4] (1 μmol/L); 12.43% in series [4] (5 μmol/L); 13.77% in [4] (10 μmol/L); 24.92% in series [4] (50 μmol/L); 33.06% in series [4] (100 μmol/L). In addition, the Average suppression rate in series [4] (150 μmol/L) is reported as 47.47%; in series [4] (200 μmol/L) it was 61.91%; in [8] (1 μmol/L), 10.65%; in series [8] (5 μmol/L), 7.52%; in series [8] (10 μmol/L) it was 9.46%; in series [8] (20 μmol/L) it was 10.68%. Further, the Average suppression rate in series [8] (50 μmol/L) stood at 22.73%; in [8] (100 μmol/L) it was 30.89%; in series [8] (150 μmol/L), 36.65%; in series [8] (200 μmol/L) it was 54.19%. Also, the OD value in [4] (0.5 μmol/L) is 0.632 ± 0.056; in [4] (1 μmol/L) it was 0.624 ± 0.053; in series [4] (5 μmol/L) it was 0.619 ± 0.090; in series [4] (10 μmol/L), 0.610 ± 0.039; in series [4] (50 μmol/L) it was 0.531 ± 0.066; in series [4] (100 μmol/L), 0.473 ± 0.034. The OD value in series [4] (150 μmol/L) is given as 0.372 ± 0.037; in [4] (200 μmol/L), 0.619 ± 0.042; in series [8] (1 μmol/L) it was 0.917 ± 0.031; in series [8] (5 μmol/L) it was 0.949 ± 0.023; in series [8] (10 μmol/L), 0.929 ± 0.030; in [8] (20 μmol/L) it was 0.916 ± 0.056. The OD value was found to be 0.793 ± 0.083 in [8] (50 μmol/L), 0.709 ± 0.038 in series [8] (100 μmol/L), 0.650 ± 0.039 in series [8] (150 μmol/L) and 0.470 ± 0.027 in series [8] (200 μmol/L). Moreover, in series [5], the concentration in solution (solubility) came to 5200 µg/mL (≈ 12.5 mM). For the same compound, the MRT inf (commonly the average time that molecules of a dose stay in the body) in series [6] (setting [11]) was 20.6 min. The MRT last (in general, a mean duration of stay, worked out from the concentration-time curve) in series [6] (setting [11]) was 19.7 min. Besides, the clearance (as a rule, the rate of elimination divided by the concentration) in series [6] (setting [11]) stood at 13 ± 3 mL/min/kg. Moreover, in [6] (setting [11]), the half-life (usually how long it takes for the measured level to halve) worked out at 17 ± 3.09 min. Moreover, in [6], the “AUC (0-t)” value is on record as 4096.192 ± 973.839 mg/Lxmin. Moreover, the Heart rate in series [7] (5 s) is on record as 512 ± 36 time · min^−1; in [7] (10 s), 469 ± 32 time · min^−1; in [7] (15 s), 437 ± 63 time · min^−1; in series [7] (30 s), 411 ± 69 time · min^−1; in series [7] (1 min), 379 ± 85 time · min^−1; in series [7] (2 min), 379 ± 72 time · min^−1. The values for the Heart rate in series [7] (5 min), in [7] (10 min) and in [7] (Normal) were 384 ± 53 time · min^−1, 434 ± 51 time · min^−1 and 484 ± 33 time · min^−1, respectively.

As for `O=c1c(-c2ccc(O)cc2)coc2c([C@@H]3O[C@H](CO[C@]4(CO)O[C@H](CO[C@]5(CO)O[C@H](CO)[C@@H](O)[C@@H]5O)[C@@H](O)[C@@H]4O)[C@@H](O)[C@H](O)[C@H]3O)c(O)ccc12` [bifructosyl-β(2,6)-puerarin], the solubility (as a rule, the concentration that dissolves in the medium under given conditions) in series [9] was found to be 280800 µg/mL (≈ 379 mM). The “solubility relative to puerarin” value in series [9] (puerarin 5.2 g/L) is listed as 54 times.

On to `O=c1c(-c2ccc(O)cc2)coc2c([C@@H]3O[C@H](CO[C@H]4O[C@H](CO)[C@@H](O)[C@H](O)[C@H]4O)[C@@H](O)[C@H](O)[C@H]3O)c(O)ccc12` [glucosyl-α-(1, 6)-puerarin], for which the “water solubility compared with puerarin” value in series [1] was 14 times.

In the case of `O=c1c(-c2ccc(O)cc2)coc2c([C@@H]3O[C@H](CO[C@H]4O[C@H](CO)[C@@H](O[C@H]5O[C@H](CO)[C@@H](O)[C@H](O)[C@H]5O)[C@H](O)[C@H]4O)[C@@H](O)[C@H](O)[C@H]3O)c(O)ccc12` [maltosyl-α-(1,6)-puerarin], the “water solubility compared with puerarin” value in [1] is 168 times.

Take “semi-emulsified glycosyl-α-(1,4)-puerarin”: in series [10], the vasodilatation effect result is “could produce better vasodilatation effect than puerarin”.
